Assay results published in publication PMC2892883 (Behavioural brain research, 2010).

Biological target: mGluR8b (Homo sapiens, UniProt O00222)
Test: […]GTPγS binding, inhibition of the potentiation by AZ12216052
Format: cell-based

Sequence of mGluR8b (O00222 34-908 isoform O00222-2): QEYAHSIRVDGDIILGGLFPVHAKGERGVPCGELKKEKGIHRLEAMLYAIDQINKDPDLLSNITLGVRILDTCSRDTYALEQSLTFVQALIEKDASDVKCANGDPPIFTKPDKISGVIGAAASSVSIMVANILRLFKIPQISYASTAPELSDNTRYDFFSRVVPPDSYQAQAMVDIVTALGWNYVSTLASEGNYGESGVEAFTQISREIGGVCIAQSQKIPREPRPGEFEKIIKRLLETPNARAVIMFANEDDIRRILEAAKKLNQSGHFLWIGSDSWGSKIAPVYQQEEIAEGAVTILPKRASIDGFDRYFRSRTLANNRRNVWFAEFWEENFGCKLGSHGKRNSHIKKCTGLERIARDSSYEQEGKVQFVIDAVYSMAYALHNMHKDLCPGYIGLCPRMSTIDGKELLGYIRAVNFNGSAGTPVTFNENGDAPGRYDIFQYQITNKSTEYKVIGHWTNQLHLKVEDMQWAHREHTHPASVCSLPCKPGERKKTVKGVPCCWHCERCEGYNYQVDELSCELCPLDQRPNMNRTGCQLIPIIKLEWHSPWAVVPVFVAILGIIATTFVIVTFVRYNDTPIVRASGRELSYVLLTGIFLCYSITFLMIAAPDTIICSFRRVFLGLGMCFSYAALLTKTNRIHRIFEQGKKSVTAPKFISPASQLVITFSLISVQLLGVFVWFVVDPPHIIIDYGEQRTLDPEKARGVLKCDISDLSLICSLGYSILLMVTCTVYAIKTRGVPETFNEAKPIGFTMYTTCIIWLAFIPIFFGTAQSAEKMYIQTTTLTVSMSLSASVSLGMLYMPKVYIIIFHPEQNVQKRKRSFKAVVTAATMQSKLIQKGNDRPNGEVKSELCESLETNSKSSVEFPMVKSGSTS

NC(C(=O)O)(c1ccc(P(=O)(O)O)cc1)C1CC1 (racemic) [CPPG]
[35S]GTPγS binding, inhibition of the potentiation by AZ12216052: The potentiator effect of AZ12216052 on mGluR8 is inhibited by group-II/III antagonists LY341495 and CPPG
